#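 Following 48 hours of exposure in 96-well plates, responses at five concentrations were used to interpolate endpoints linearly. The concentration for 50% growth inhibition is given as GI50.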 The source made the active and inactive calls. Cut-off read from the data, not from the text of the source: active = GI50 up to about 1.1 µM and inactive = higher.
# Key:
# Assay in all cases: NCI tumour cell line growth inhibition, 48 h
# [1] = test system: A549
# [2] = test system: ACHN
# [3] = test system: CAKI-1
# [4] = test system: DU-145
# [5] = test system: EKVX
# [6] = test system: HCT-116
# [7] = test system: HCT-15
# [8] = test system: HOP-92
# [9] = test system: HT-29
# [10] = test system: IGROV-1
# [11] = test system: KM12
# [12] = test system: M14
# [13] = test system: MDA-MB-231
# [14] = test system: MDA-MB-435
# [15] = test system: MDA-N
# [16] = test system: NCI-H226
# [17] = test system: NCI-H23
# [18] = test system: NCI/ADR-RES
# [19] = test system: OVCAR-3
# [20] = test system: OVCAR-4
# [21] = test system: OVCAR-5
# [22] = test system: OVCAR-8
# [23] = test system: PC-3
# [24] = test system: RXF 393
# [25] = test system: SF-268
# [26] = test system: SF-295
# [27] = test system: SF-539
# [28] = test system: SK-MEL-5
# [29] = test system: SN12C
# [30] = test system: SNB-19
# [31] = test system: SNB-75
# [32] = test system: SW-620
# [33] = test system: TK-10
# [34] = test system: U-251
# [35] = test system: UO-31
# [36] = test system: 786-0
# [37] = test system: A498
# [38] = test system: BT-549
# [39] = test system: CCRF-CEM
# [40] = test system: COLO 205
# [41] = test system: HL-60
# [42] = test system: HOP-62
# [43] = test system: Hs-578T
# [44] = test system: K562
# [45] = test system: LOX IMVI
# [46] = test system: MCF7
# [47] = test system: MOLT-4
# [48] = test system: Malme-3M
# [49] = test system: NCI-H460
# [50] = test system: NCI-H522
# [51] = test system: RPMI-8226
# [52] = test system: SK-MEL-28
# [53] = test system: SK-MEL-2
# [54] = test system: SK-OV-3
# [55] = test system: T47D
# [56] = test system: UACC-257
# [57] = test system: UACC-62
# [58] = test system: HCC 2998
# [59] = test system: SR
structure (smiles),measurement,setting,value
CC1(C)CC(=O)C2=C(C1)OC1=C(C(=O)CC(C)(C)C1)C2CC(c1ccccc1)c1ccc(O)c(O)c1O (configuration not stated),GI50,[1],3.73 µM (inactive)
same,GI50,[2],> 10 µM (inactive)
same,GI50,[3],5.11 µM (inactive)
same,GI50,[4],> 10 µM (inactive)
same,GI50,[5],> 10 µM (inactive)
same,GI50,[6],8.81 µM (inactive)
same,GI50,[7],4.18 µM
same,GI50,[8],5.18 µM (inactive)
same,GI50,[9],3.04 µM (inactive)
same,GI50,[10],> 10 µM (inactive)
same,GI50,[11],3.41 µM (inactive)
same,GI50,[12],9.91 µM (inactive)
same,GI50,[13],8.91 µM (inactive)
same,GI50,[14],8.13 µM (inactive)
same,GI50,[15],> 10 µM (inactive)
same,GI50,[16],> 10 µM (inactive)
same,GI50,[17],5.9 µM (inactive)
same,GI50,[18],> 10 µM (inactive)
same,GI50,[19],3.54 µM (inactive)
same,GI50,[20],6.38 µM (inactive)
same,GI50,[21],> 10 µM (inactive)
same,GI50,[22],> 10 µM (inactive)
same,GI50,[23],2.87 µM (inactive)
same,GI50,[24],> 10 µM (inactive)
same,GI50,[25],> 10 µM (inactive)
same,GI50,[26],3.96 µM (inactive)
same,GI50,[27],> 10 µM (inactive)
same,GI50,[28],5.68 µM (inactive)
same,GI50,[29],> 10 µM (inactive)
same,GI50,[30],> 10 µM (inactive)
same,GI50,[31],3.05 µM (inactive)
same,GI50,[32],3.36 µM (inactive)
same,GI50,[33],> 10 µM (inactive)
same,GI50,[34],> 10 µM (inactive)
same,GI50,[35],> 10 µM (inactive)
COc1cc2c(/C=C3/C(=O)Nc4ccc(O)cc43)c(Cl)[nH]c2cc1C,GI50,[36],0.173 µM (active)
same,GI50,[37],11.4 µM (inactive)
same,GI50,[1],0.397 µM (active)
same,GI50,[2],0.108 µM (active)
same,GI50,[38],0.139 µM (active)
same,GI50,[3],0.0893 µM (active)
same,GI50,[39],46.2 nM (active)
same,GI50,[40],0.192 µM (active)
same,GI50,[4],0.245 µM (active)
same,GI50,[5],0.679 µM (active)
same,GI50,[6],0.0897 µM (active)
same,GI50,[7],0.107 µM
same,GI50,[41],0.0343 µM (active)
same,GI50,[42],0.127 µM (active)
same,GI50,[8],15.9 µM (inactive)
same,GI50,[9],0.149 µM (active)
same,GI50,[43],0.0989 µM (active)
same,GI50,[10],0.441 µM (active)
same,GI50,[44],38.2 nM (active)
same,GI50,[11],0.045 µM (active)
same,GI50,[45],77.5 nM (active)
same,GI50,[12],0.0897 µM (active)
same,GI50,[46],0.0748 µM (active)
same,GI50,[13],0.283 µM (active)
same,GI50,[14],< 0.0137 µM (active)
same,GI50,[47],39 nM (active)
same,GI50,[48],0.0398 µM (active)
same,GI50,[16],0.258 µM (active)
same,GI50,[17],0.23 µM (active)
same,GI50,[49],0.454 µM (active)
same,GI50,[50],0.146 µM (active)
same,GI50,[18],0.249 µM (active)
same,GI50,[19],0.026 µM (active)
same,GI50,[20],0.562 µM (active)
same,GI50,[21],0.618 µM (active)
same,GI50,[22],0.281 µM (active)
same,GI50,[23],0.359 µM (active)
same,GI50,[51],0.275 µM (active)
same,GI50,[24],0.176 µM (active)
same,GI50,[25],0.927 µM (active)
same,GI50,[26],0.0984 µM (active)
same,GI50,[27],0.0447 µM (active)
same,GI50,[52],0.0149 µM (active)
same,GI50,[53],0.883 µM (active)
same,GI50,[28],0.0822 µM (active)
same,GI50,[54],0.0627 µM (active)
same,GI50,[29],0.197 µM (active)
same,GI50,[30],0.146 µM (active)
same,GI50,[31],0.143 µM (active)
same,GI50,[32],0.0955 µM (active)
same,GI50,[55],46.2 nM (active)
same,GI50,[33],0.398 µM (active)
same,GI50,[34],0.0521 µM (active)
same,GI50,[56],0.615 µM (active)
same,GI50,[57],0.0499 µM (active)
same,GI50,[35],0.728 µM (active)
Nc1nc(Cl)cc(NCC2(CO)CC(CCCCc3ccccc3)C2)n1 (configuration not stated),GI50,[36],42.3 µM (inactive)
same,GI50,[37],18.1 µM (inactive)
same,GI50,[1],16.1 µM (inactive)
same,GI50,[2],> 100 µM (inactive)
same,GI50,[38],> 100 µM (inactive)
same,GI50,[3],82.8 µM (inactive)
same,GI50,[39],87.5 nM (active)
same,GI50,[40],27.9 µM (inactive)
same,GI50,[4],> 100 µM (inactive)
same,GI50,[5],> 100 µM (inactive)
same,GI50,[58],37.7 µM (inactive)
same,GI50,[6],29 µM (inactive)
same,GI50,[7],34.8 µM
same,GI50,[41],6.55 µM (inactive)
same,GI50,[42],99.8 µM (inactive)
same,GI50,[8],96.4 µM (inactive)
same,GI50,[9],13.7 µM (inactive)
same,GI50,[43],70.6 µM (inactive)
same,GI50,[10],> 100 µM (inactive)
same,GI50,[44],2230 nM (inactive)
same,GI50,[11],65 µM (inactive)
same,GI50,[45],5730 nM (inactive)
same,GI50,[12],67.6 µM (inactive)
same,GI50,[46],7.55 µM (inactive)
same,GI50,[13],30.6 µM (inactive)
same,GI50,[14],42.9 µM (inactive)
same,GI50,[15],89.1 µM (inactive)
same,GI50,[47],3360 nM (inactive)
same,GI50,[48],16.3 µM (inactive)
same,GI50,[16],> 100 µM (inactive)
same,GI50,[17],21.8 µM (inactive)
same,GI50,[49],40.8 µM (inactive)
same,GI50,[50],66.7 µM (inactive)
same,GI50,[19],> 100 µM (inactive)
same,GI50,[20],> 100 µM (inactive)
same,GI50,[21],> 100 µM (inactive)
same,GI50,[22],27.2 µM (inactive)
same,GI50,[23],46.1 µM (inactive)
same,GI50,[51],10.9 µM (inactive)
same,GI50,[24],34.6 µM (inactive)
same,GI50,[25],> 100 µM (inactive)
same,GI50,[26],18.2 µM (inactive)
same,GI50,[27],> 100 µM (inactive)
same,GI50,[52],> 100 µM (inactive)
same,GI50,[53],> 100 µM (inactive)
same,GI50,[28],3.86 µM (inactive)
same,GI50,[54],> 100 µM (inactive)
same,GI50,[29],> 100 µM (inactive)
same,GI50,[30],> 100 µM (inactive)
same,GI50,[31],81.3 µM (inactive)
same,GI50,[59],19.2 µM (inactive)
same,GI50,[32],78.7 µM (inactive)
same,GI50,[33],> 100 µM (inactive)
same,GI50,[34],> 100 µM (inactive)
same,GI50,[56],61.9 µM (inactive)
same,GI50,[57],> 100 µM (inactive)

# — ChEMBL document CHEMBL1201862, “PubChem BioAssay data set” (2004)
